Positions of bridges follow the written chain, without caps; N, C: chain ends. Non-standard residues stand in square brackets, D forms with d. Residues, ends and D or L forms follow the SMILES beside them. *: point of attachment. NMeY = CN[C@@H](Cc1ccc(O)cc1)C(=O)O; Propionyl = CCC(=O)*
Assays:
PC-9 = assay: Cytotoxicity against human PC-9 cells assessed as reduction in cell viability incubated for 72 hrs by CCK8 assay; type: cell-based; settings: PC-9, 72 h
HeLa = assay: Cytotoxicity against human HeLa cells assessed as reduction in cell viability incubated for 72 hrs by CCK8 assay; type: cell-based
MCF7 = assay: Cytotoxicity against human MCF7 cells assessed as reduction in cell viability incubated for 72 hrs by CCK8 assay; type: cell-based; settings: MCF7, 72 h
HepG2 = assay: Cytotoxicity against human HepG2 cells assessed as reduction in cell viability incubated for 72 hrs by CCK8 assay; type: cell-based; settings: HepG2, 72 h
[1] = Inhibition of porcine pancrease lipase type 2 assessed as decrease in 4-MU formation using 4-MUO as substrate preincubated for 3 mins followed by substrate addition and measured for 40 mins by fluorescence assay; design: species or system Sus scrofa domesticus, Pancreas
[2] = Non-competitive inhibition of porcine pancrease lipase type 2 assessed as decrease in 4-MU formation using 4-MUO as substrate preincubated for 3 mins followed by substrate addition and measured for 40 mins by Lineweaver-Burk plot analysis; design: species or system Sus scrofa domesticus, Pancreas

IC50 [1] [µM]	Ki [2] [µM]	SMILES	IC50 (PC-9) [µM]	IC50 (HeLa) [µM]	IC50 (MCF7) [µM]	IC50 (HepG2) [µM]
1.8		CCC(=O)N[C@@H]1C(=O)N[C@@H](C(C)C)C(=O)N2CCC[C@H]2C(=O)N[C@@H](C(C)C)C(=O)N(C)[C@@H](Cc2ccc(O)cc2)C(=O)N[C@@H](Cc2ccc(O)cc2)C(=O)O[C@@H]1C (Propionyl-TVPV[NMeY]Y; ester 1-C)	> 20	> 20	> 20	> 20
7.6		CC(=O)N[C@@H]1C(=O)N[C@@H](C(C)C)C(=O)N2CCC[C@H]2C(=O)N[C@@H](C(C)C)C(=O)N(C)[C@@H](Cc2ccc(O)cc2)C(=O)N[C@@H](Cc2ccc(O)cc2)C(=O)O[C@@H]1C (Ac-TVPV[NMeY]Y; ester 1-C)	> 20	> 20	> 20	> 20
0.5	2	CC(=O)N[C@@H]1C(=O)N[C@@H](C(C)C)C(=O)N2CCC[C@H]2C(=O)N[C@H](C(C)C)C(=O)N[C@@H](Cc2ccc(O)cc2)C(=O)N[C@@H](Cc2ccc(O)cc2)C(=O)O[C@@H]1C	> 20	> 20	> 20	> 20
